Here are results for 41 molecules from ChEMBL document CHEMBL1140586, “Design and synthesis of a functionally selective D3 agonist and its in vivo delivery via the intranasal route” (Bioorg Med Chem Lett, 2007).

Where only a bound is given, the exact number is not on record here.

One test has as its target D(2) dopamine receptor (Homo sapiens, UniProt P14416). Description: Agonist activity at human recombinant dopamine D2 receptor expressed in rat pituitary cells assessed as inhibition of forskolin-stimulated cAMP accumulation. It counts as functional, cell-based, Pituitary gland cell.
The next test concerns the target D(3) dopamine receptor (Homo sapiens, UniProt P35462). Description: Agonist activity at human recombinant dopamine D3 receptor expressed in CHO cells assessed as inhibition of forskolin-stimulated cAMP accumulation. It counts as functional, cell-based.

Chain of D(3) dopamine receptor (P35462 whole entry): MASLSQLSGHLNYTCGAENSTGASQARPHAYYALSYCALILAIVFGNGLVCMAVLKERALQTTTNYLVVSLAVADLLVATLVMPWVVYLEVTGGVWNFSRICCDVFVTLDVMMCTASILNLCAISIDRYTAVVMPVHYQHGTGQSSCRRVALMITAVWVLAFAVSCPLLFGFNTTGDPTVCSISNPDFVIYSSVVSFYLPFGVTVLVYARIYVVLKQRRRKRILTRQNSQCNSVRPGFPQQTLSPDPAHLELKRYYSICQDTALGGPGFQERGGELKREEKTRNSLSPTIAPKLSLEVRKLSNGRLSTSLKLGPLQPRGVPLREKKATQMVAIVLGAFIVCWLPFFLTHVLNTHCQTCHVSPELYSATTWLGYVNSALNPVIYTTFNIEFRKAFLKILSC
Chain of D(2) dopamine receptor (P14416 whole entry): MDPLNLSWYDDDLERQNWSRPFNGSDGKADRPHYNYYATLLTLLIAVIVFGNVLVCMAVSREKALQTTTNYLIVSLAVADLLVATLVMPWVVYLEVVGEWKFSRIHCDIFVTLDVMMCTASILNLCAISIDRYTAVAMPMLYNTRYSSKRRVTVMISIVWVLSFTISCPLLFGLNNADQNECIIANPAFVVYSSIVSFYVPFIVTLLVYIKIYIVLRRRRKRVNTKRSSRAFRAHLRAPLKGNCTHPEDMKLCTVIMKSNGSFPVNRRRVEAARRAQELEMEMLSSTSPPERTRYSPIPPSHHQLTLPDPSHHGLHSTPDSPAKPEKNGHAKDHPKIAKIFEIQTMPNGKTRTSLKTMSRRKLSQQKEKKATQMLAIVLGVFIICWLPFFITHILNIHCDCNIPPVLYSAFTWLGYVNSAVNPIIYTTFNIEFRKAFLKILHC

The term EC50 denotes the concentration giving half of the maximal effect. For `CCCN1CCOC(c2cccc(OC)c2)C1` (centres undefined), the EC50 was above 10 µM on D(2) dopamine receptor and above 1000 nM at D(3) dopamine receptor.
As for `CCCN1CCOC(c2cccc(-c3ncc[nH]3)c2)C1` (centres undefined), the EC50 on D(2) dopamine receptor was above 10 µM; on D(3) dopamine receptor, above 1000 nM.
As to `CCN1CCOC(c2cccc(O)c2)C1` (centres undefined), the EC50 on D(2) dopamine receptor was above 30 µM; at D(3) dopamine receptor, 547 nM.
Take `CCCN1CCOC(c2cc(O)cc(O)c2)C1` (centres undefined): on D(3) dopamine receptor, the EC50 amounted to 37 nM.
On the same count and under the same terms, the same measure for `CCCN1CCOC(c2cccc(CO)c2)C1` (centres undefined): above 1000 nM; for `CCCN1CCOC(c2ccc(O)cc2)C1` (centres undefined): above 1000 nM; for `CCCN1CCOC(c2ccc(O)c(NS(C)(=O)=O)c2)C1` (centres undefined): above 1000 nM.
For `CCCN1CCOC(c2cccc(C(=O)OC)c2)C1` (centres undefined), at D(3) dopamine receptor, the EC50 was above 1000 nM.
`CCCN1CCOC(c2ccc(O)c(CO)c2)C1` (centres undefined): on D(3) dopamine receptor, the EC50 was above 1000 nM.
Same read-out and setting: under `CCCN1CCOC(c2ccc(Cl)c(O)c2)C1` (centres undefined) stands above 688 nM.
In the case of `CCCN1CCO[C@@H](c2cc(O)cc(O)c2)C1`, the EC50 on D(2) dopamine receptor was above 10 µM; at D(3) dopamine receptor it was above 10000 nM.
For the molecule `CCCN1CCOC(c2cc(O)cc(C(N)=O)c2)C1` (centres undefined), the concentration giving a half-maximal response (EC50) on D(3) dopamine receptor is above 10000 nM.
`COCCN1CCOC(c2cccc(O)c2)C1` (centres undefined): the EC50 is above 10 µM on D(2) dopamine receptor and above 3000 nM at D(3) dopamine receptor.
Turning to `CCCN1CCOC(c2ccc(O)c(C(N)=O)c2)C1` (centres undefined), the concentration for a half-maximal effect (EC50) on D(3) dopamine receptor came to 427 nM.
`CCCN1CCOC(c2cccc(Cl)c2)C1` (centres undefined): the EC50 was above 10 µM on D(2) dopamine receptor and above 2800 nM on D(3) dopamine receptor.
The corresponding values for `CCCN1CCOC(c2cccc(SC)c2)C1` (centres undefined) are above 10 µM and above 1000 nM.
For the molecule `CCCN1CCOC(c2cc(O)ccc2Br)C1` (centres undefined), at D(3) dopamine receptor, the EC50 was above 10000 nM.
Take `CCCN1CCOC(c2cccc(O)c2)C1` (centres undefined): the EC50 is above 10 µM at D(2) dopamine receptor and 27 nM at D(3) dopamine receptor.
On to `CCCN1CCOC(c2cccc(S(C)(=O)=O)c2)C1` (centres undefined), for which the values for the EC50 on D(2) dopamine receptor and at D(3) dopamine receptor were above 10 µM and above 1000 nM, respectively.
Take `CCCN1CCOC(c2ccc(O)c(-n3cnnc3)c2)C1` (centres undefined): the EC50 on D(3) dopamine receptor was above 1000 nM.
Turning to `CCCN1CCC[C@@H]2Cc3nc(N)ncc3C[C@H]21` [QUINELORANE], the EC50 on D(2) dopamine receptor is 0.002 µM.
For the molecule `CCCN1CCOC(c2ccc(O)c(N)c2)C1` (centres undefined), the half-maximal effective concentration (EC50) at D(3) dopamine receptor was found to be 40 nM.
As for `CCCN1CCO[C@@H](c2cccc(O)c2)C1`, the EC50 is above 10 µM at D(2) dopamine receptor and above 5000 nM at D(3) dopamine receptor.
In the case of `CCCN1CCOC(c2cccc(OC(F)(F)F)c2)C1` (centres undefined), the EC50 is above 1 µM on D(2) dopamine receptor and above 1000 nM at D(3) dopamine receptor.
The corresponding values for `CCCN1CCOC(c2ccccc2)C1` (centres undefined) are above 10 µM and above 1000 nM.
The corresponding values for `CCCN1CCO[C@@H](c2ccc(F)c(O)c2)C1` are above 10 µM and above 10000 nM.
On to `C=CCN1CCOC(c2cccc(O)c2)C1` (centres undefined), for which the EC50 on D(2) dopamine receptor was above 100 µM; at D(3) dopamine receptor, 1310 nM.
As for `CCCN1CCOC(c2cccc(C#N)c2)C1` (centres undefined), the EC50 at D(3) dopamine receptor is above 1000 nM.
With `CCCN1CCOC(c2cccc(O)c2C)C1` (centres undefined), the concentration giving a half-maximal response (EC50) at D(3) dopamine receptor was above 1000 nM.
Still for that read-out and setting: the same measure for `CCCN1CCOC(c2ccc(F)c(O)c2)C1` (centres undefined): 35 nM.
In the case of `CCCN1CCOC(c2cccc(N)c2)C1` (centres undefined), the values for the EC50 on D(2) dopamine receptor and at D(3) dopamine receptor were above 1 µM and above 1000 nM, respectively.
Take `CCCN1CCOC(c2cccc(-c3nnc[nH]3)c2)C1` (centres undefined): on D(3) dopamine receptor, the EC50 is above 1000 nM.
The same measure, in the same setting: the same measure for `CCCN1CCOC(c2cc(O)cc(C#N)c2)C1` (centres undefined): above 10000 nM.
`CCCN1CCOC(c2cccc(NS(C)(=O)=O)c2)C1` (centres undefined): the EC50 is above 1 µM at D(2) dopamine receptor and above 1000 nM on D(3) dopamine receptor.
Regarding `CCCN(CCC)CCc1cccc2c1CC(=O)N2` [ROPINIROLE], on D(2) dopamine receptor, the EC50 came out at 0.083 µM.
With `CCCN1CCOC(c2ccc(O)c(C#N)c2)C1` (centres undefined), the half-maximal effective concentration (EC50) on D(3) dopamine receptor is above 1000 nM.
`CC(=O)NCCCCN1CCOC(c2cccc(O)c2)C1` (centres undefined): the values for the EC50 on D(2) dopamine receptor and at D(3) dopamine receptor were above 10 µM and above 10000 nM, respectively.
The corresponding values for `CCCN1CCOC(c2cccc(C(=O)O)c2)C1` (centres undefined) are above 10 µM and above 1000 nM.
In the case of `CCCN1CCOC(c2ccc(CO)c(O)c2)C1` (centres undefined), the EC50 on D(3) dopamine receptor was above 5900 nM.
For the molecule `CCCN1CCOC(c2ccc(O)c(C(C)=O)c2)C1` (centres undefined), the EC50 on D(3) dopamine receptor was above 1000 nM.
For `CCCN1CCOC(c2cccc(C(N)=O)c2)C1` (centres undefined), the EC50 at D(3) dopamine receptor is above 1000 nM.
